Experimental findings from US8877747B2, “Indenone derivative and pharmaceutical composition comprising same” (Korea Research Institute of Chemical Technology, priority 2009, dated 2014) are described below.

Where a name gives a salt, the structure may show the parent alone.

The test system of this experiment is MC3T3-E1 cells. The experiment can be described thus: ALP activity, differentiation of osteoblast cells. Format: cell-based. Conditions: Mus musculus, MC3T3-E1, 144 h; MC3T3E1 cells treated with 10 μM compound and OF; relates activity to OF-only group (100%); higher = more efficacious. On the procedure: To examine the effects of the inventive indenone derivatives on the differentiation and activation of osteoblast cells, the activity and expression of alkaline phosphatase (ALP), a marker for the differentiation of osteoblast cells, and the bone nodule formation using a mouse derived osteoblast-like cells, MC3T3-E1 (ATCC, Japan) or a primary mouse calvaria derived preosteoblastic cells were observed.
MC3T3-E 1 cells were seeded in a medium containing osteogenic factors (OF) such as ascorbic acids and β-glycerophosphates (b-GP), and each compound of Examples was added thereto at a concentration of 0.1, 1 and 10 μM. The cells were incubated for 6 days (MC3T3-E1 cells) or 7 days (primary mouse calvaria derived preosteoblastic cells) in a 37° C. CO2 incubator. Then, the culture medium was replaced with a fresh medium together with the test compound every two or three days. On the last day, the medium was centrifuged to remove the supernatant, and the cells were washed with PBS. The washed cells were subjected to a 3-cycle freege-thaw treatment using a −70° C. deep freezer to allow enzymes elute in a lysis buffer. The lysed protein was quantified, followed by measurement of ALP activity using 4-nitrophenylphosphate.
Further, a group treated only with DMSO or OF was tested for ALP activities for comparison.
In the case of `O=C1C(c2cccnc2)=C(c2cc(F)cc(F)c2)c2ccc(OCCCN3CCNCC3)cc21` [Example 66, 3-(3,5-difluorophenyl)-6-(3-(piperazin-1-yl)propoxy)-2-(pyridin-3-yl)-1H-inden-1-one hydrochloride salt], the activity at 10 µM came to 70%.

On to `Cc1ccc(C2=C(c3ccc(F)cc3F)c3ccc(OCCCN4CCN(S(C)(=O)=O)CC4)cc3C2=O)cc1` [Example 108, 3-(2,4-difluorophenyl)-6-{3-[4-(methylsulfonyl)piperazin-1-yl]propoxy}-2-p-tolyl-1H-inden-1-one], for which the activity at 10 µM came to 111%.

On to `O=C1C(c2cccnc2)=C(c2ccccc2F)c2ccc(OCCN3CCOCC3)cc21` [Example 80, 6-(2-morpholinoethoxy)-3-(2-fluorophenyl)-2-(pyridin-3-yl)-1H-inden-1-one], for which the activity at 10 µM was 74%.

`O=C1C(c2cccnc2)=C(c2ccc(F)cc2)c2ccc(OCCN3CCOCC3)cc21` [Example 24, 6-(2-morpholinoethoxy)-3-(4-fluorophenyl)-2-(pyridin-3-yl)-1H-inden-1-one]: the activity at 10 µM worked out at 121%.

Consider `O=C1C(c2cncnc2)=C(c2ccc(Cl)cc2)c2ccc(OCCN3CCOCC3)cc21` [Example 30, 6-(2-morpholinoethoxy)-3-(4-chlorophenyl)-2-(pyrimidin-5-yl)-1H-inden-1-one], for which the activity at 10 µM was found to be 150%.

For the compound `CS(=O)(=O)N1CCN(CCCOc2ccc3c(c2)C(=O)C(c2cnc4ccccc4c2)=C3c2ccc(F)cc2F)CC1` [Example 111, 3-(2,4-difluorophenyl)-6-{3-[4-(methylsulfonyl)piperazin-1-yl]propoxy}-2-(quinolin-3-yl)-1H-inden-1-one], the activity at 10 µM was 117%.

For `O=C1C(c2cnc3ccccc3c2)=C(c2cc(F)cc(F)c2)c2ccc(OCCN3CCS(=O)(=O)CC3)cc21` [Example 92, 3-(3,5-difluorophenyl)-6-[2-(1,1-dioxothiomorpholin-4-yl)ethoxy]-2-(quinolin-3-yl)-1H-inden-1-one hydrochloride salt], the activity at 10 µM amounted to 262%.

Consider `O=C1C(c2cccnc2)=C(c2cc(F)cc(F)c2)c2ccc(OCCC3CCNCC3)cc21` [Example 70, 3-(3,5-difluorophenyl)-6-(2-(piperidin-4-yl)ethoxy)-2-(pyridin-3-yl)-1H-inden-1-one hydrochloride salt], for which the activity at 10 µM came out at 19%.

With `COc1ccc(C2=C(c3cc(F)cc(F)c3)c3ccc(OCCN4CCN(S(C)(=O)=O)CC4)cc3C2=O)cn1` [Example 97, 3-(3,5-difluorophenyl)-2-(6-methoxypyridin-3-yl)-6-{2-[4-(methylsulfonyl)piperazin-1-yl]ethoxy}-1H-inden-1-one hydrochloride salt], the activity at 10 µM was 179%.

As for `COc1ccc(C2=C(c3ccc(F)cc3F)c3ccc(OCCC4CCN(S(C)(=O)=O)CC4)cc3C2=O)cn1` [Example 121, 3-(2,4-difluorophenyl)-2-(6-methoxypyridin-3-yl)-6-{2-[1-(methylsulfonyl)piperidin-4-yl]ethoxy}-1H-inden-1-one], the activity at 10 µM was determined as 207%.

Take `COc1ccc(C2=C(c3ccc(F)cc3F)c3ccc(OCCCN4CCN(S(C)(=O)=O)CC4)cc3C2=O)cn1` [Example 109, 3-(2,4-difluorophenyl)-6-{3-[4-(methylsulfonyl)piperazin-1-yl]propoxy}-2-(6-methoxypyridin-3-yl)-1H-inden-1-one]: the activity at 10 µM was 177%.

For `COc1ccc(C2=C(c3ccc(F)cc3F)c3ccc(OCCN4CCN(S(C)(=O)=O)CC4)cc3C2=O)cn1` [Example 117, 3-(2,4-difluorophenyl)-2-(6-methoxypyridin-3-yl)-6-{2-[4-(methylsulfonyl)piperazin-1-yl]ethoxy}-1H-inden-1-one], the activity at 10 µM was determined as 98%.

Turning to `O=C1C(c2cncc3ccccc23)=C(c2ccccc2)c2ccc(OCCN3CCOCC3)cc21` [Example 15, 6-(2-morpholinoethoxy)-2-(isoquinolin-4-yl)-3-phenyl-1H-inden-1-one], the activity at 10 µM was 65%.

As for `Cc1ccc(C2=C(c3ccc(F)cc3F)c3ccc(OCCN4CCS(=O)(=O)CC4)cc3C2=O)cc1` [Example 112, 3-(2,4-difluorophenyl)-6-[2-(1,1-dioxothiomorpholin-4-yl)ethoxy]-2-p-tolyl-1H-inden-1-one], the activity at 10 µM was 70%.

`O=C1C(c2cccnc2)=C(c2cc(F)cc(F)c2)c2ccc(OCC3CCCO3)cc21` (stereo not shown) [Example 79, 3-(3,5-difluorophenyl)-2-(pyridin-3-yl)-6-((tetrahydrofuran-2-yl)methoxy)-1H-inden-1-one]: the activity at 10 µM worked out at 110%.

Consider `Cc1ccc(C2=C(c3cc(F)cc(F)c3)c3ccc(OCCN4CCS(=O)(=O)CC4)cc3C2=O)cc1` [Example 94, 3-(3,5-difluorophenyl)-6-[2-(1,1-dioxothiomorpholin-4-yl)ethoxy]-2-p-tolyl-1H-inden-1-one hydrochloride salt], for which the activity at 10 µM was 109%.

With `C[n+]1cccc(C2=C(c3ccccc3)c3ccc(OCCN4CCOCC4)cc3C2=O)c1` [Example 41, 1-methyl-3-{6-[2-(morpholin-4-yl)ethoxy]-1-oxo-3-phenyl-1H-inden-2-yl}pyridin-1-ium iodide], the activity at 10 µM was 329%.

Regarding `COc1ccc(C2=C(c3cc(F)cc(F)c3)c3ccc(OCCN4CCS(=O)(=O)CC4)cc3C2=O)cn1` [Example 93, 3-(3,5-difluorophenyl)-2-(6-methoxypyridin-3-yl)-6-[2-(1,1-dioxothiomorpholin-4-yl)ethoxy]-1H-inden-1-one hydrochloride salt], the activity at 10 µM was determined as 155%.

With `CN1CCN(CCCOc2ccc3c(c2)C(=O)C(c2cccnc2)=C3c2cc(F)cc(F)c2)CC1` [Example 65, 3-(3,5-difluorophenyl)-6-(3-(4-methylpiperazin-1-yl)propoxy)-2-(pyridin-3-yl)-1H-inden-1-one hydrochloride salt], the activity at 10 µM was determined as 19%.

With `COc1ccc(C2=C(c3ccc(F)cc3F)c3ccc(OCCN4CCN(S(C)(=O)=O)CC4)cc3C2=O)cc1F` [Example 118, 2-(3-fluoro-4-methoxyphenyl)-3-(2,4-difluorophenyl)-6-{2-[4-(methylsulfonyl)piperazin-1-yl]ethoxy}-1H-inden-1-one], the activity at 10 µM worked out at 311%.

With `Nc1cccc(C2=C(c3ccccc3)c3ccc(OCCN4CCOCC4)cc3C2=O)c1` [Example 20, 6-(2-morpholinoethoxy)-2-(3-aminophenyl)-3-phenyl-1H-inden-1-one], the activity at 10 µM amounted to 283%.

As to `CS(=O)(=O)N1CCC(CCOc2ccc3c(c2)C(=O)C(c2cccnc2)=C3c2cc(F)cc(F)c2)CC1` [Example 73, 3-(3,5-difluorophenyl)-6-(2-(1-(methylsulfonyl)piperidin-4-yl)ethoxy)-2-(pyridin-3-yl)-1H-inden-1-one hydrochloride salt], the activity at 10 µM was determined as 150%.

As for `O=C1C(c2ccc[nH]2)=C(c2ccccc2)c2ccc(OCCN3CCOCC3)cc21` [Example 90, 6-(2-morpholinoethoxy)-3-phenyl-2-(1H-pyrrol-2-yl)-1H-inden-1-one], the activity at 10 µM turned out to be 63%.

With `COc1ccc(C2=C(c3ccc(F)cc3F)c3ccc(OCCC4CCN(S(C)(=O)=O)CC4)cc3C2=O)cc1F` [Example 122, 2-(3-fluoro-4-methoxyphenyl)-3-(2,4-difluorophenyl)-6-{2-[1-(methylsulfonyl)piperidin-4-yl]ethoxy}-1H-inden-1-one], the activity at 10 µM turned out to be 203%.

For the compound `O=C1C(c2cccnc2)=C(c2cccc(F)c2)c2ccc(OCCN3CCOCC3)cc21` [Example 81, 6-(2-morpholinoethoxy)-3-(3-fluorophenyl)-2-(pyridin-3-yl)-1H-inden-1-one], the activity at 10 µM was 116%.

For the compound `O=C1C(c2ccc(F)cc2)=C(c2ccccc2)c2ccc(OCCN3CCOCC3)cc21` [Example 17, 6-(2-morpholinoethoxy)-2-(4-fluorophenyl)-3-phenyl-1H-inden-1-one], the activity at 10 µM amounted to 236%.

Take `COc1ccc(C2=C(c3ccc(F)cc3F)c3ccc(OCCN4CCS(=O)(=O)CC4)cc3C2=O)cn1` [Example 113, 3-(2,4-difluorophenyl)-2-(6-methoxypyridin-3-yl)-6-[2-(1,1-dioxothiomorpholin-4-yl)ethoxy]-1H-inden-1-one]: the activity at 10 µM amounted to 217%.

Regarding `CC(C)(C)OC(=O)N1CCN(CCOc2ccc3c(c2)C(=O)C(c2cccnc2)=C3c2cc(F)cc(F)c2)CC1` [Example 58, tert-Butyl 4-(2-(3-(3,5-difluorophenyl)-1-oxo-2-(pyridin-3-yl)-1H-inden-6-yloxy)ethyl)piperazine-1-carboxylate], the activity at 10 µM was determined as 19%.

In the case of `CC(C)(C)OC(=O)N1CCN(CCCOc2ccc3c(c2)C(=O)C(c2cccnc2)=C3c2cc(F)cc(F)c2)CC1` [Example 64, tert-butyl 4-(3-(3-(3,5-difluorophenyl)-1-oxo-2-(pyridin-3-yl)-1H-inden-6-yloxy)propyl)piperazine-1-carboxylate], the activity at 10 µM was 34%.

Turning to `CS(=O)(=O)N1CCN(CCOc2ccc3c(c2)C(=O)C(c2cnc4ccccc4c2)=C3c2cc(F)cc(F)c2)CC1` [Example 96, 3-(3,5-difluorophenyl)-6-{2-[4-(methylsulfonyl)piperazin-1-yl]ethoxy}-2-(quinolin-3-yl)-1H-inden-1-one hydrochloride salt], the activity at 10 µM worked out at 152%.

For the compound `O=C1C(c2cccnc2)=C(c2cc(F)cc(F)c2)c2ccc(OCCc3ccccc3)cc21` [Example 61, 3-(3,5-difluorophenyl)-6-phenethoxy-2-(pyridin-3-yl)-1H-inden-1-one hydrochloride salt], the activity at 10 µM amounted to 113%.
